Measured values published in ChEMBL document CHEMBL4052638, “Multitarget trehalose-carnosine conjugates inhibit Aβ aggregation, tune copper(II) activity and decrease acrolein toxicity” (Eur J Med Chem, 2017).
The source made the active and inactive calls. No cut-off for these calls is given here.

Assays:
[1] = Inhibition of cupric ion-mediated amyloid beta (1 to 40) aggregation at 20 mM at pH 6.6 after 3 hrs by light scattering assay
[2] = target: Amyloid-beta precursor protein (Homo sapiens) (UniProt P05067); experiment: Inhibition of amyloid beta (1 to 42) (unknown origin) self induced aggregation […] by ThT-based fluorometric method
Chain of Amyloid-beta precursor protein (Homo sapiens) (P05067 whole entry): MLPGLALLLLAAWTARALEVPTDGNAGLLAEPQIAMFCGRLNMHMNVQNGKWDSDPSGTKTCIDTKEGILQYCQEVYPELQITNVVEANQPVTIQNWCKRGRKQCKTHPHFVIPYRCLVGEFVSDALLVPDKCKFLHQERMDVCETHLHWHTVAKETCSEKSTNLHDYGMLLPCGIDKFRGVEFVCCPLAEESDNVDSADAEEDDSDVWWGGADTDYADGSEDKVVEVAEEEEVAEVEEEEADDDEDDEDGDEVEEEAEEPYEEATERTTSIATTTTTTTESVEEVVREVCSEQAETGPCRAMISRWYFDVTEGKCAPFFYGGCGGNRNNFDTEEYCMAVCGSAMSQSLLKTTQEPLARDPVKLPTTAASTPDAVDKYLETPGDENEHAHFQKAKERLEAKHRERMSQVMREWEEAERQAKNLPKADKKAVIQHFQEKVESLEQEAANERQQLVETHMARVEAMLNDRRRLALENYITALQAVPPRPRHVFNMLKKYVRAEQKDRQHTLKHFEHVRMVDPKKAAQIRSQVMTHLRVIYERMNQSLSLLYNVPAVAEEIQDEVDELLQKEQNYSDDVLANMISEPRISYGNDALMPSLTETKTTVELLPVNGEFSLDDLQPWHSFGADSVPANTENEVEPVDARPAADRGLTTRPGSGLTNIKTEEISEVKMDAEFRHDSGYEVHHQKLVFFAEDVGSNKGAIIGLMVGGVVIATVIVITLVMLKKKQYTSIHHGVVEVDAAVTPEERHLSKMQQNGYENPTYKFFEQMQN

[3] = target: Amyloid-beta precursor protein (Homo sapiens) (UniProt P05067); experiment: Inhibition of amyloid beta (1 to 42) (unknown origin) self induced aggregation assessed as reduction in protofibrils formation at 500 uM after 30 hrs by atomic force microscopic analysis
[4] = target: Amyloid-beta precursor protein (Homo sapiens) (UniProt P05067); experiment: Inhibition of amyloid beta (1 to 42) (unknown origin) self induced aggregation assessed as lag time at 40 to 5000 uM […] by ThT-based fluorometric method (reference value: 8.3 +/- 0.7 hrs)
[5] = Stability of the compound assessed as human recombinant carnosinase mediated compound hydrolysis at 0.5 mM after 2.5 hrs by RP-HPLC analysis; format: ADME; conditions: 500 µM
[6] = target: Amyloid-beta precursor protein (Homo sapiens) (UniProt P05067); experiment: Inhibition of amyloid beta (1 to 42) (unknown origin) self induced aggregation assessed as average assembled nanostructure height at 500 uM after 30 hrs by atomic force microscopic analysis
[7] = target: Amyloid-beta precursor protein (Homo sapiens) (UniProt P05067); experiment: Inhibition of amyloid beta (1 to 42) (unknown origin) self induced aggregation assessed as reduction in flat ribbons formation at 500 uM after 30 hrs by atomic force microscopic analysis
[8] = target: Amyloid-beta precursor protein (Homo sapiens) (UniProt P05067); experiment: (§1) Inhibition of amyloid beta (1 to 42) (unknown origin) self induced aggregation assessed as time at which amplitude of ThT emission is 50% of difference between final and initial fluorescence emission at 40 to 5000 uM after 3 hrs by ThT-based fluorometric method (reference value: 11 +/- 1 hrs)
[9] = Antiglycating activity in phosphate buffer assessed as ACR-compound adduct formation at 10 mM at pH 7.4 after 1 to 24 hrs by HPLC-MS/MS spectra analysis; format: physicochemical; conditions: pH 7.4, 10000 µM
[10] = target: Amyloid-beta precursor protein (Homo sapiens) (UniProt P05067); experiment: Inhibition of amyloid beta (1 to 42) (unknown origin) self induced aggregation assessed as difference between final and initial fluorescence emission at 40 to 5000 uM […] by ThT-based fluorometric method (reference value: 52 +/- 7 a.u.)
[11] = Antiglycating activity in phosphate buffer assessed as decrease in ACR levels at 10 mM at pH 7.4 by RP-HPLC analysis; format: physicochemical; conditions: pH 7.4, 10000 µM, TDE = time-dependent effect
[12] = target: Amyloid-beta precursor protein (Homo sapiens) (UniProt P05067); experiment: Inhibition of amyloid beta (1 to 42) (unknown origin) self induced aggregation assessed as fluorescence emission rate constant K at 40 to 5000 uM […] by ThT-based fluorometric method (reference value: 1.3 +/- 0.1)
[13] = Antiglycating activity in phosphate buffer assessed as ACR levels at 10 mM at pH 7.4 after 24 hr by RP-HPLC analysis relative to control; format: physicochemical; conditions: pH 7.4, 24 h, 10000 µM
[14] = Antiglycating activity in phosphate buffer assessed as decrease in ACR levels at 10 mM at pH 7.4 after 1 hr by RP-HPLC analysis relative to control; format: physicochemical; set-up: scale not given: the % may be the effect or the level left; conditions: pH 7.4, 1 h, 10000 µM
[15] = Antiglycating activity in phosphate buffer assessed as decrease in ACR levels at 10 mM at pH 7.4 up to 4 hrs by RP-HPLC analysis relative to control; format: physicochemical; set-up: scale not given: the % may be the effect or the level left; conditions: pH 7.4, 4 h, 10000 µM
[16] = Drug metabolism assessed as human recombinant carnosinase mediated compound hydrolysis at 0.5 mM after 1.5 hrs by RP-HPLC analysis; format: ADME; conditions: 500 µM
[17] = target: Amyloid-beta precursor protein (Homo sapiens) (UniProt P05067); experiment: Inhibition of amyloid beta (1 to 42) (unknown origin) self induced aggregation assessed as fluorescence emission rate constant K at 40 to 5000 uM […] in presence of trehalose by ThT-based fluorometric method (reference value: 1.3 +/- 0.1)
[18] = target: Amyloid-beta precursor protein (Homo sapiens) (UniProt P05067); experiment: Inhibition of amyloid beta (1 to 42) (unknown origin) self induced aggregation assessed as Tlag at 40 to 5000 uM in presence of trehalose by ThT-based fluorometric method (reference value: 8.3 +/- 0.7 hrs)
[19] = target: Amyloid-beta precursor protein (Homo sapiens) (UniProt P05067); experiment: Inhibition of amyloid beta (1 to 42) (unknown origin) self induced aggregation assessed as difference between final and initial fluorescence emission at 40 to 5000 uM […] in presence of trehalose by ThT-based fluorometric method (reference value: 52 +/- 7 a.u.)
[20] = target: Amyloid-beta precursor protein (Homo sapiens) (UniProt P05067); experiment: as §1, with “in presence of trehalose” for “after 3 hrs”

## O=C(CCNC[C@H]1O[C@H](O[C@H]2O[C@H](CO)[C@@H](O)[C@H](O)[C@H]2O)[C@H](O)[C@@H](O)[C@@H]1O)N[C@@H](Cc1c[nH]cn1)C(=O)O
[1]
  inhibition: Active
[2]
  Activity: Dose-dependent effect
[3]
  inhibition: Active
[4]
  Tlag: 2.7 h
[5]
  Stability: Stable
[6]
  Activity: 2.1 nm
[7]
  inhibition: Active
[8]
  T1/2: 4.1 h
[9]
  Activity: Active
[10]
  Activity: 6 a.u.
[11]
  Activity: Tde
[12]
  K: 0.7
[13]
  Activity: 1%

## NCCC(=O)N[C@@H](Cc1cnc[nH]1)C(=O)O [CARNOSINE]
[14]
  Activity: 40%
[15]
  Activity: 0%
[9]
  Activity: Active
[16]
  Drug metabolism: Metabolite_Detected
[13]
  Activity: 0%

## OC[C@H]1O[C@H](O[C@H]2O[C@H](CO)[C@@H](O)[C@H](O)[C@H]2O)[C@H](O)[C@@H](O)[C@@H]1O
[2]
  Activity: Dose-dependent effect
[4]
  Tlag: 4.7 h
[8]
  T1/2: 8.3 h
[10]
  Activity: 37 a.u.
[12]
  K: 1.7

## NCCC(=O)N[C@@H](Cc1c[nH]cn1)C(=O)O
[17]
  K: 2.7
[1]
  inhibition: Active
[2]
  Activity: Dose-dependent effect
[18]
  Tlag: 4.3 h
[3]
  inhibition: inactive
[4]
  Tlag: 3.9 h
[19]
  Activity: 31 a.u.
[7]
  inhibition: inactive
[8]
  T1/2: 7.8 h
[20]
  T1/2: 5.8 h
[10]
  Activity: 33 a.u.
[12]
  K: 1.9
